Assay results published in patent publication US10239832B2, “N-(1-hydroxy-3-(pyrrolidinyl)propan-2-yl)pyrrolidine-3-carboxamide derivatives as glucosylceramide synthase inhibitors” (BIOMARIN PHARMACEUTICAL INC., priority 2013, dated 2019).

Biological target: T1, GCS (Canis lupus familiaris, UniProt A0A8I3MXG6)
T1 construct: endogenous in cells; host or cells: MDCK (Madin-Darby canine kidney) cells, whole-cell lysate
T1 sequence (A0A8I3MXG6 1-394): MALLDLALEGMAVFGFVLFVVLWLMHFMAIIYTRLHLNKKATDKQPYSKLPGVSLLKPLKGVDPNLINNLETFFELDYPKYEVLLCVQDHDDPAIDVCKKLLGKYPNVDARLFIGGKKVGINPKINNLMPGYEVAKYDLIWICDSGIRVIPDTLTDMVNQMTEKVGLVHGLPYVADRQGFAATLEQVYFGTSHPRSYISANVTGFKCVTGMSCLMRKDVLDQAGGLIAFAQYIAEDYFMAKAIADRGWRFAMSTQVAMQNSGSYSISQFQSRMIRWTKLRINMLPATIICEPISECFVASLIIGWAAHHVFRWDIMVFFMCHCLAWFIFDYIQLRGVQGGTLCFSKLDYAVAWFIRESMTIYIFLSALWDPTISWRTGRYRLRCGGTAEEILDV
Experiment: GCS enzymatic assay (MDCK cell lysate, NBD-ceramide to glucosylceramide, LC/MS)
Assay type: biochemical, canine
Details: Table 2; class symbols A, B, C; the table does not say which of the assays; read-out: Data Range (IC50 values)
Summary of the method: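 IC50 or percent inhibition came from LC/MS/MS (ESI+, MRM) of NBD-ceramide and glucosylceramide, with tolbutamide as internal standard. The reaction used MDCK (canine) cell lysate as the enzyme source and was ended with acetonitrile. Mock wells received 0.1% DMSO.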

| Compound | IC50 |
| --- | --- |
| O=C(N[C@H](CN1CCCC1)[C@H](O)c1ccc2c(c1)OCCO2)[C@@H]1CCN(c2cccc(Oc3ccc(F)cc3)n2)C1 [Compound 119, (R)-N-((1R,2R)-1-(2,3-dihydrobenzo[b][1,4]dioxin-6-yl)-1-hydroxy-3-(pyrrolidin-1-yl)propan-2-yl)-1-(6-(4-fluorophenoxy)pyridin-2-yl)pyrrolidine-3-carboxamide] | 1 to 30 nM |
| Cn1ncc2ccc(N3CC[C@@H](C(=O)N[C@H](CN4CCC4)[C@H](O)c4cc(F)c5c(c4)OCCO5)C3)cc21 [Compound 134, (R)-N-((1R,2R)-3-(azetidin-1-yl)-1-(8-fluoro-2,3-dihydrobenzo[b][1,4]dioxin-6-yl)-1-hydroxypropan-2-yl)-1-(1-methyl-1H-indazol-6-yl)pyrrolidine-3-carboxamide] | 1 to 30 nM |
| O=C(N[C@H](CN1CCC1)[C@H](O)c1ccc(OC2COC2)c(Cl)c1)[C@@H]1CCN(c2ccc3cc(F)ccc3c2)C1 [Compound 122, (R)-N-((1R,2R)-3-(azetidin-1-yl)-1-(3-chloro-4-(oxetan-3-yloxy)phenyl)-1-hydroxypropan-2-yl)-1-(6-fluoronaphthalen-2-yl)pyrrolidine-3-carboxamide] | 1 to 30 nM |
| O=C(N[C@H](CN1CCCC1)[C@H](O)c1ccc(OC2CCOCC2)c(Cl)c1)[C@@H]1CCN(c2ccc3cc(Cl)sc3c2)C1 [Compound 101, (R)-N-((1R,2R)-1-(3-chloro-4-((tetrahydro-2H-pyran-4-yl)oxy)phenyl)-1-hydroxy-3-(pyrrolidin-1-yl)propan-2-yl)-1-(2-chlorobenzo[b]thiophen-6-yl)pyrrolidine-3-carboxamide] | 1 to 30 nM |
| O=C(N[C@H](CN1CCCC1)[C@H](O)c1cc(F)c2c(c1)OCCO2)[C@]1(O)CCN(c2ccc(Cl)cc2)C1 [Compound 154, (S)-1-(4-chlorophenyl)-N-((1R,2R)-1-(8-fluoro-2,3-dihydrobenzo[b][1,4]dioxin-6-yl)-1-hydroxy-3-(pyrrolidin-1-yl)propan-2-yl)-3-hydroxypyrrolidine-3-carboxamide] | 1 to 30 nM |
| O=C(N[C@H](CN1CCCC1)[C@H](O)c1ccc2c(c1)OCCO2)[C@@H]1CCN(c2ccc(Cl)cc2)C1 [Compound 1, (R)-1-(4-chlorophenyl)-N-((1R,2R)-1-(2,3-dihydrobenzo[b][1,4]dioxin-6-yl)-1-hydroxy-3-(pyrrolidin-1-yl)propan-2-yl)pyrrolidine-3-carboxamide] | 1 to 30 nM |
| O=C(N[C@H](CN1CCCC1)[C@H](O)c1ccc(SC2CC2)c(Cl)c1)[C@@H]1CCN(c2ccc(Cl)cc2)C1 [Compound 145, (R)-N-((1R,2R)-1-(3-chloro-4-(cyclopropylthio)phenyl)-1-hydroxy-3-(pyrrolidin-1-yl)propan-2-yl)-1-(4-chlorophenyl)pyrrolidine-3-carboxamide] | 1 to 30 nM |
| O=C(N[C@H](CN1CCCC1)[C@H](O)c1ccc(OC2CC2)c(F)c1)[C@@H]1CCN(c2ccccc2)C1 [Compound 151, (R)-N-((1R,2R)-1-(4-cyclopropoxy-3-fluorophenyl)-1-hydroxy-3-(pyrrolidin-1-yl)propan-2-yl)-1-phenylpyrrolidine-3-carboxamide] | 1 to 30 nM |
| O=C(N[C@H](CN1CCCC1)[C@H](O)c1ccc(OC2CC2)c(Cl)c1)[C@@H]1CCN(c2ccc3cc(F)ccc3c2)C1 [Compound 84, (R)-N-((1R,2R)-1-(3-chloro-4-cyclopropoxyphenyl)-1-hydroxy-3-(pyrrolidin-1-yl)propan-2-yl)-1-(6-fluoronaphthalen-2-yl)pyrrolidine-3-carboxamide] | 1 to 30 nM |
| Cc1ccc(N2CC[C@@H](C(=O)N[C@H](CN3CCCC3)[C@H](O)c3ccc(OC4CC4)c(Cl)c3)C2)cc1 [Compound 153, (R)-N-((1R,2R)-1-(3-chloro-4-cyclopropoxyphenyl)-1-hydroxy-3-(pyrrolidin-1-yl)propan-2-yl)-1-(p-tolyl)pyrrolidine-3-carboxamide] | 1 to 30 nM |
| O=C(N[C@H](CN1CCCC1)[C@H](O)c1ccc2c(c1)OCCO2)C1CCN(c2ccc3cc(F)ccc3c2)C1 (stereo partly drawn) [Compound 14C, N-((1R,2R)-1-(2,3-dihydrobenzo[b][1,4]dioxin-6-yl)-1-hydroxy-3-(pyrrolidin-1-yl)propan-2-yl)-1-(6-fluoronaphthalen-2-yl)pyrrolidine-3-carboxamide] | 1 to 30 nM |
| O=C(N[C@H](CN1CCCC1)[C@H](O)c1ccc(OC2CCOCC2)c(Cl)c1)[C@@H]1CCN(c2ccc(F)cc2)C1 [Compound 32, (R)-N-((1R,2R)-1-(3-chloro-4-((tetrahydro-2H-pyran-4-yl)oxy)phenyl)-1-hydroxy-3-(pyrrolidin-1-yl)propan-2-yl)-1-(4-fluorophenyl)pyrrolidine-3-carboxamide] | 1 to 30 nM |
| O=C(N[C@H](CN1CCCC1)[C@H](O)c1ccc(OC2CC2)c(F)c1)[C@@H]1CCN(c2ccc(F)cc2)C1 [Compound 69, (R)-N-((1R,2R)-1-(4-cyclopropoxy-3-fluorophenyl)-1-hydroxy-3-(pyrrolidin-1-yl)propan-2-yl)-1-(4-fluorophenyl)pyrrolidine-3-carboxamide] | 1 to 30 nM |

The next lines start with the values.

| IC50 | Compound |
| --- | --- |
| 1 to 30 nM | O=C(N[C@H](CN1CCCC1)[C@H](O)c1ccc2c(c1)OCCO2)[C@H]1CCN(c2ccc3ccsc3c2)C1 [Compound 53D, (S)-1-(benzo[b]thiophen-6-yl)-N-((1R,2R)-1-(2,3-dihydrobenzo[b][1,4]dioxin-6-yl)-1-hydroxy-3-(pyrrolidin-1-yl)propan-2-yl)pyrrolidine-3-carboxamide] |
| 1 to 30 nM | O=C(N[C@H](CN1CCCC1)[C@H](O)c1ccc2c(c1)OCCO2)C1CCN(c2ccc3cc(Cl)ccc3n2)C1 (stereo partly drawn) [Compound 99C, 1-(6-chloroquinolin-2-yl)-N-((1R,2R)-1-(2,3-dihydrobenzo[b][1,4]dioxin-6-yl)-1-hydroxy-3-(pyrrolidin-1-yl)propan-2-yl)pyrrolidine-3-carboxamide] |
| 1 to 30 nM | O=C(N[C@H](CN1CCCC1)[C@H](O)c1ccc2c(c1)OCCO2)C1CCN(c2ccc3c(c2)CCCC3)C1 (stereo partly drawn) [Compound 80G, N-((1R,2R)-1-(2,3-dihydrobenzo[b][1,4]dioxin-6-yl)-1-hydroxy-3-(pyrrolidin-1-yl)propan-2-yl)-1-(5,6,7,8-tetrahydronaphthalen-2-yl)pyrrolidine-3-carboxamide] |

Same assay, conditions: Table 2; class symbols D, E, F, NA (not active); the table does not say which of the assays

| Compound | Data Range (% inhibition) |
| --- | --- |
| O=C(N[C@H](CN1CCCCC1)[C@H](O)c1cc(F)c2c(c1)OCCO2)[C@@H]1CCN(c2ccc(Cl)cc2)C1 [Compound 44, (R)-1-(4-chlorophenyl)-N-((1R,2R)-1-(8-fluoro-2,3-dihydrobenzo[b][1,4]dioxin-6-yl)-1-hydroxy-3-(piperidin-1-yl)propan-2-yl)pyrrolidine-3-carboxamide] | F (1-49% (or less than 50%)) |
| O=C(N[C@H](CN1CCCC1)[C@H](O)c1ccc2c(c1)OCCO2)[C@H]1CCN(c2nccs2)C1 [Compound 17D, (S)-N-((1R,2R)-1-(2,3-dihydrobenzo[b][1,4]dioxin-6-yl)-1-hydroxy-3-(pyrrolidin-1-yl)propan-2-yl)-1-(thiazol-2-yl)pyrrolidine-3-carboxamide] | NA (not active—a negative value was generated for % inhibition) |
| O=C(N[C@H](CN1CCCC1)[C@H](O)c1ccc2c(c1)OCCO2)[C@@H]1CCN(c2ccc3cccnc3c2)C1 [Compound 106, (R)-N-((1R,2R)-1-(2,3-dihydrobenzo[b][1,4]dioxin-6-yl)-1-hydroxy-3-(pyrrolidin-1-yl)propan-2-yl)-1-(quinolin-7-yl)pyrrolidine-3-carboxamide] | D (75-100%) |

Further lines, results first:

| Data Range (% inhibition) | Compound |
| --- | --- |
| F (1-49% (or less than 50%)) | CC(C)Oc1ccc([C@@H](O)[C@@H](CN2CCCC2)NC(=O)[C@H]2CCN(c3ccc(Cl)cc3)C2)cn1 [Compound 29B, (S)-1-(4-chlorophenyl)-N-((1R,2R)-1-hydroxy-1-(6-isopropoxypyridin-3-yl)-3-(pyrrolidin-1-yl)propan-2-yl)pyrrolidine-3-carboxamide] |
| F (1-49% (or less than 50%)) | CN1CCc2ccc(N3CCC(C(=O)N[C@H](CN4CCCC4)[C@H](O)c4ccc5c(c4)OCCO5)C3)cc2C1 (stereo partly drawn) [Compound 63C, N-((1R,2R)-1-(2,3-dihydrobenzo[b][1,4]dioxin-6-yl)-1-hydroxy-3-(pyrrolidin-1-yl)propan-2-yl)-1-(2-methyl-1,2,3,4-tetrahydroisoquinolin-7-yl)pyrrolidine-3-carboxamide] |
| E (50-74% (or less than 75%)) | CC1(C)CCc2ccc(N3CCC(C(=O)N[C@H](CN4CCCC4)[C@H](O)c4ccc5c(c4)OCCO5)C3)cc2O1 (stereo partly drawn) [Compound 71E, N-((1R,2R)-1-(2,3-dihydrobenzo[b][1,4]dioxin-6-yl)-1-hydroxy-3-(pyrrolidin-1-yl)propan-2-yl)-1-(2,2-dimethylchroman-7-yl)pyrrolidine-3-carboxamide] |
| F (1-49% (or less than 50%)) | O=C(N[C@H](CN1CCCC1)[C@H](O)c1ccc(OC2CC2)c(Cl)c1)[C@H]1CCN(c2ccccn2)C1 [Compound 54A, (S)-N-((1R,2R)-1-(3-chloro-4-cyclopropoxyphenyl)-1-hydroxy-3-(pyrrolidin-1-yl)propan-2-yl)-1-(pyridin-2-yl)pyrrolidine-3-carboxamide] |
